The values that follow come from patent publication US9096601B2 (CSPC Zhongqi Pharmaceutical Technology (Shijiazhuang) Co., …, priority 2010, dated 2015).

The target of one assay is EGFR L858R mutant type (Homo sapiens (Human), UniProt P00533, L858R). Put plainly: Kinase inhibitory activity, isotopic labeling (γ-33P-ATP). It counts as biochemical. The following applies: ATP 200 μM (Km). As for the experimental part:
(§1) The object of this assay was to test the inventive compounds for the kinase inhibitory activity in vitro. In this assay, an isotopic labeling method was used to label the γ phosphate group on ATP. […] Staurosporine was used as a reference molecule (or referred to as a positive control). […] The IC50 value can be obtained by the calculation of the inhibitory rates at a series of different concentrations of the tested compounds.
(§2) To a reaction tube were successively added the buffer solution (8 mM MOPS, pH 7.0, 0.2 mM EDTA, 10 mM MnCl2), the kinase to be tested (5-10 mU) (EGFR/ALK/BTK/c-KIT/c-SRC/MET/PDGFRα/VEGFR2), the substrate for the kinase to be tested (a reference material), 10 mM of the solution of magnesium acetate and γ-^33 P-ATP, and different concentrations of the tested compounds. […] The reaction was terminated with […] of the 3% phosphate buffer solution. 10 μL of the reaction liquid was titrated on the Filtermat A membrane. The membrane was washed with 75 mM of the phosphate solution thrice (5 minutes each time), and then with methanol once, and finally dried. The membrane was subjected to a scintillation counting. The value of the scintillation counting reflected the phosphorylation level of the substrate and therefore could characterize the inhibition of the kinase activity.

The next assay deals with EGFR wild type (Homo sapiens (Human), UniProt P00533). The description is as above. The assay is classed as biochemical. The conditions noted are these: ATP 10 μM (Km). The method, then:
as §1, §2

Assay [1] deals with EGFR L858R/T790M double mutant type (Homo sapiens (Human), UniProt P00533, L858R/T790M). Described as above. It counts as biochemical. The conditions noted are these: ATP 45 μM (Km). The method, then:
as §1, §2

For assay [2], the system named is breast carcinoma cell strain MDA-MB-468. Briefly: In-vitro tumor cell proliferation inhibition, MTT. The assay is classed as cell-based, human. The conditions noted are these: 72 hours.
The subject of assay [3] is gastric cancer cell strain MK-45. Put plainly: In-vitro tumor cell proliferation inhibition, MTT. The assay is classed as cell-based, human. The conditions noted are these: 72 hours, read-out: MK45 (IC50).
For assay [4], the system named is colon cancer cell strain SW620. Briefly: In-vitro tumor cell proliferation inhibition, MTT. The assay is classed as cell-based, human. The following applies: 72 hours. The procedure, abridged:
(§3)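 MTT colorimetric proliferation test: plated cells exposed 72 h to compound dilution series, DMSO 1% solvent control included. A570 gave inhibition relative to drug-free control; IC50 or inhibitory rate from at least three experiments. HCC827 and BT474 grown in RPMI-1640, A431 and SW620 in DMEM, both with 10% FBS.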

The test system of assay [5] is liver cancer cell strain Hep G2. Put plainly: In-vitro tumor cell proliferation inhibition, MTT. The conditions noted are these: 72 hours, read-out: HEPG2 (IC50). It counts as cell-based, human.
Assay [6] relates to malignant melanoma cell strain A375. Put plainly: In-vitro tumor cell proliferation inhibition, MTT. The assay is classed as cell-based, human. The following applies: 72 hours.
Assay [7] deals with squamous cell carcinoma cell strain A431. Put plainly: In-vitro tumor cell proliferation inhibition, MTT. The assay is classed as cell-based, human. The following applies: 72 hours. The procedure, abridged:
as §3

Assay [8] has as its system breast carcinoma cell strain BT474. Briefly: In-vitro tumor cell proliferation inhibition, MTT. The assay is classed as cell-based, human. The following applies: 72 hours. The procedure, abridged:
as §3

Assay [9] relates to chronic granulocytic leukemia cell strain K562. Briefly: In-vitro tumor cell proliferation inhibition, MTT. The conditions noted are these: 72 hours. The assay is classed as cell-based, human.
For assay [10], the system named is colon cancer cell strain SW480. Put plainly: In-vitro tumor cell proliferation inhibition, MTT. The conditions noted are these: 72 hours. The assay is classed as cell-based, human.
For assay [11], the system named is non-small cell lung carcinoma cell strain H1975 (EGFR L858R/T790M mutation). Put plainly: In-vitro tumor cell proliferation inhibition, MTT. The assay is classed as cell-based, human. The following applies: 72 hours.
The subject of assay [12] is non-small cell lung carcinoma cell strain HCC827. Put plainly: In-vitro tumor cell proliferation inhibition, MTT. The assay is classed as cell-based, human. The following applies: 72 hours. The procedure, abridged: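 Cells grown in RPMI-1640 with 10% FBS, seeded overnight (HCC827 at 6×10^4 cells/ml), then exposed to graded compound concentrations for 72 h at 37 °C, 5% CO2, with 1% DMSO solvent control. MTT absorbance at 570 nm; inhibition relative to control; triplicate wells, ≥3 repeats.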

Assay [13] deals with non-small cell lung carcinoma cell strain H292 (EGFR WT). Put plainly: In-vitro tumor cell proliferation inhibition, MTT. The assay is classed as cell-based, human. The following applies: 72 hours.
Assay [14] has as its system non-small cell lung carcinoma cell strain PC-9 (EGFR delE746-A750 deletion mutation). Briefly: In-vitro tumor cell proliferation inhibition, MTT. It counts as cell-based, human. The following applies: 72 hours.

Sequence of EGFR L858R/T790M double mutant type (P00533 25-1210 T790M/L858R): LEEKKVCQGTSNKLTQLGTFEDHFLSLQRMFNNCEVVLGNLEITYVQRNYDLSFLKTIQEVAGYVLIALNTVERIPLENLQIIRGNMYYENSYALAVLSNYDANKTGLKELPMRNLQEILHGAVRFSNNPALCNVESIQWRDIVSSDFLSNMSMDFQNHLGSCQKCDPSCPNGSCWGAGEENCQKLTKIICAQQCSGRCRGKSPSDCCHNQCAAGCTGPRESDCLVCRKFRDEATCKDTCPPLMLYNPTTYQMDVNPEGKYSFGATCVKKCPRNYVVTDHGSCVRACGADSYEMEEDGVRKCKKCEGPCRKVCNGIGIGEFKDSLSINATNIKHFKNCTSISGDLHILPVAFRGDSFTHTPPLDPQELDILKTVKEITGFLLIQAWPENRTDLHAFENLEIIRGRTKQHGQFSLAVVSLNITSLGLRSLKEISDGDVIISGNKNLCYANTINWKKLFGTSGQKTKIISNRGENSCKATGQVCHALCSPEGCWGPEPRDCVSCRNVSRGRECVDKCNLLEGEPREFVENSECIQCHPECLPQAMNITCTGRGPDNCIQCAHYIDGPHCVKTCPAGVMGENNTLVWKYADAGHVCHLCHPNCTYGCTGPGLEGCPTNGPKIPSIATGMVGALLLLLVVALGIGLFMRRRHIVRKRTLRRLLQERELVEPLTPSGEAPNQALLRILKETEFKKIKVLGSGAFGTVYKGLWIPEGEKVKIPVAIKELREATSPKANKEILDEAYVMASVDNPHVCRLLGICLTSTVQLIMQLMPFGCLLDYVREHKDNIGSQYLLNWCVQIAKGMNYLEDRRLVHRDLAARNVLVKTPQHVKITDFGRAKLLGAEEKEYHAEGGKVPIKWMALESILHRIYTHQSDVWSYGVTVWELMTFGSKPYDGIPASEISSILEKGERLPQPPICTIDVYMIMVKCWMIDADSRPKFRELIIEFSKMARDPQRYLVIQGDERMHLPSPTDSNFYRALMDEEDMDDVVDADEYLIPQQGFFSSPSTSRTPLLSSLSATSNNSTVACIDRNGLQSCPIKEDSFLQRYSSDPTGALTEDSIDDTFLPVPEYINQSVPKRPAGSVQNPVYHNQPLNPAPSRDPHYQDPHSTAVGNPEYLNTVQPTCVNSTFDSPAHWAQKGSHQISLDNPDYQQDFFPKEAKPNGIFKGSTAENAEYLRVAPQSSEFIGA
Sequence of EGFR wild type (P00533 25-1210): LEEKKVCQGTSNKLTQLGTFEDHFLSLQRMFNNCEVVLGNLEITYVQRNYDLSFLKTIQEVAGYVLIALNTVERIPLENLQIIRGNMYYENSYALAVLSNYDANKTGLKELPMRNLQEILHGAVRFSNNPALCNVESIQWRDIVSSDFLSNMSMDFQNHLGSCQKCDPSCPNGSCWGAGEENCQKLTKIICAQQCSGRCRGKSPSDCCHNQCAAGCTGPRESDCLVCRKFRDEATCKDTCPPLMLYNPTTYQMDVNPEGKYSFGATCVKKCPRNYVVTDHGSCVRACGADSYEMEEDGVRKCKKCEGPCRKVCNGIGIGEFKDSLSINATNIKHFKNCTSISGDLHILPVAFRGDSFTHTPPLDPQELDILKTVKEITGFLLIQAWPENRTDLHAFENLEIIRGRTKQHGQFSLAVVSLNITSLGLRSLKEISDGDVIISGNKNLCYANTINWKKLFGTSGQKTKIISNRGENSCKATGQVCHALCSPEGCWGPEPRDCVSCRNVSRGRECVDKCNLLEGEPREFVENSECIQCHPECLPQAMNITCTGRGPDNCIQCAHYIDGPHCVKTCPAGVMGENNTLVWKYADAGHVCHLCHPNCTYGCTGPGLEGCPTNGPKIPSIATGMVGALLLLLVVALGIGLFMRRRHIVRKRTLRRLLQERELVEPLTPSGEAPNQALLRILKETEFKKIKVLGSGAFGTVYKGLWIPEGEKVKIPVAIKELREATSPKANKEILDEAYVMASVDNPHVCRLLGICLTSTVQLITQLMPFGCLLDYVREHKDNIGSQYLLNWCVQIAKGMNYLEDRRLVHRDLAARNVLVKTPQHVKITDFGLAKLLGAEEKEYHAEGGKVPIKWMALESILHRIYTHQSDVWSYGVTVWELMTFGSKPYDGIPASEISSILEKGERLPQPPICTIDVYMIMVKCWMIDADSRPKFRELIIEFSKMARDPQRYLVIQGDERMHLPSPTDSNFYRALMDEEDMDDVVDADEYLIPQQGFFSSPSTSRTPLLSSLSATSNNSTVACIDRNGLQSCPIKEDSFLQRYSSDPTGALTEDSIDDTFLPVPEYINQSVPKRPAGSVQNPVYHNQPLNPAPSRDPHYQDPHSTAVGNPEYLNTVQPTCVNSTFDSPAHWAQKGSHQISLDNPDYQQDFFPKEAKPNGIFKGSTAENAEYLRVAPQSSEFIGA
Sequence of EGFR L858R mutant type (P00533 25-1210 L858R): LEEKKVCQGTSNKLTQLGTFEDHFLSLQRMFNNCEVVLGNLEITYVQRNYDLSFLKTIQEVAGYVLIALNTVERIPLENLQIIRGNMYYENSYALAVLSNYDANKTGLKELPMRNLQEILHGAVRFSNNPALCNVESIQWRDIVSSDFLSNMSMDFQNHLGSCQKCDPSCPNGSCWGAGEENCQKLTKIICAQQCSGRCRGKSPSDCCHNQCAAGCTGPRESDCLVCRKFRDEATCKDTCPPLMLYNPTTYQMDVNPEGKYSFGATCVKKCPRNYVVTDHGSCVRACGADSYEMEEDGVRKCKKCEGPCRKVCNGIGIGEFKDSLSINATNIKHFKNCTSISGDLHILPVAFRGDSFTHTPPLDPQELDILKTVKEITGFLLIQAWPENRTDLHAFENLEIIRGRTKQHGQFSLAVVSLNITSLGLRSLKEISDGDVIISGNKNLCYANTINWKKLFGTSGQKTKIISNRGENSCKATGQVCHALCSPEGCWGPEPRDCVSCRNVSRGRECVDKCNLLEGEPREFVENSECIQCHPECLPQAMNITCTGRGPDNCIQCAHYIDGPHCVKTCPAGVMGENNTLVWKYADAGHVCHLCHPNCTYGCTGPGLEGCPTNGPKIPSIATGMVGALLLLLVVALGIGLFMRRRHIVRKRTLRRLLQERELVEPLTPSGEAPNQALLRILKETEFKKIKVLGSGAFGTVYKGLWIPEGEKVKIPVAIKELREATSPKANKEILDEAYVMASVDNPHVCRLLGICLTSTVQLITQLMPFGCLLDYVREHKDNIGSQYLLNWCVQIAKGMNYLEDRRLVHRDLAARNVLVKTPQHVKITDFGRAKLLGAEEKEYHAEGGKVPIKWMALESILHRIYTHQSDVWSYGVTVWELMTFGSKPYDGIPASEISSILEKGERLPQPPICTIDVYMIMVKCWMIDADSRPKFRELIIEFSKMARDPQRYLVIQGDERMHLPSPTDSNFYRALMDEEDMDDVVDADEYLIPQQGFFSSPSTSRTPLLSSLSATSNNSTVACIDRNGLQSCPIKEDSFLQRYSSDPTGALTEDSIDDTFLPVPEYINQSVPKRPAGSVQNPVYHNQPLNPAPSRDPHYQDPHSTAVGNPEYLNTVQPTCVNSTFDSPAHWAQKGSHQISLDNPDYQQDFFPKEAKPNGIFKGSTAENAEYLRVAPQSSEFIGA

The term IC50 denotes the point on the concentration scale where inhibition reaches its midpoint. `CN1CCN(c2ccc(Nc3ncc4nc(Nc5ccccc5)n(C)c4n3)cc2)CC1` [Compounds 8-24]: the IC50 is 0.003 µM against EGFR L858R mutant type; 0.012 µM against EGFR wild type; 0.522 µM in assay [1]; 9.65 µM in assay [2]; 8.08 µM in assay [3]; over 10 µM in assay [4]. In addition, the IC50 was over 10 µM in assay [5]; 2.4 µM in assay [6]; 9.65 µM in assay [7]; 2.41 µM in assay [8]; 1.42 µM in assay [9]; over 10 µM in assay [10]. Moreover, the IC50 in assay [11] was over 10 µM; in [12], 0.0002 µM; in assay [13], 0.171 µM; in assay [14], 0.006 µM.

Regarding `CN1CCN(c2ccc(Nc3ncc4nc(Nc5ccccc5)[nH]c4n3)cc2)CC1` [Compounds 8-25], the IC50 is 0.005 µM at EGFR L858R mutant type; 0.029 µM against EGFR wild type; 0.458 µM in assay [1]; over 10 µM in assay [2]; 5.35 µM in assay [3]; over 10 µM in assay [4]. Besides, the IC50 in assay [5] is over 10 µM; in [6], over 10 µM; in assay [7], over 10 µM; in [8], 9.99 µM; in assay [9], over 10 µM; in assay [10], over 10 µM. Moreover, the IC50 was over 10 µM in [11], 0.0528 µM in assay [12], 1.65 µM in assay [13] and 0.258 µM in assay [14].

For `CC(C)n1c(Nc2ccc(C(F)(F)F)cc2)nc2cnc(Nc3ccc(N4CCN(C)CC4)cc3)nc21` [Compounds 8-27], the IC50 against EGFR L858R mutant type is 0.005 µM; against EGFR wild type, 0.034 µM; in assay [1], 0.054 µM; in assay [2], 1.96 µM; in [3] it was 6.11 µM; in [4], over 1 µM. Moreover, the IC50 is over 1 µM in [5]; 9.79 µM in [6]; 2.35 µM in assay [7]; 1.18 µM in assay [8]; 0.777 µM in assay [9]; 2.6 µM in assay [10]. For the same molecule, the IC50 was over 10 µM in [11], 0.0823 µM in assay [12], 4.19 µM in [13] and 0.115 µM in assay [14].

`CC(C)n1c(Nc2cccnc2)nc2cnc(Nc3ccc(N4CCN(C)CC4)cc3)nc21` [Compounds 8-29]: the IC50 against EGFR L858R mutant type worked out at 0.004 µM; against EGFR wild type, 0.031 µM; in assay [1] it was 0.064 µM; in assay [2], 8.12 µM; in [3], 8.17 µM; in assay [4] it was 5.8 µM. The IC50 was over 10 µM in [5]; 1.88 µM in assay [6]; 9.02 µM in [7]; 2.25 µM in assay [8]; 0.24 µM in [9]; over 10 µM in assay [10]. The IC50 is over 10 µM in [11], 0.0072 µM in assay [12], 0.18 µM in [13] and 0.01 µM in assay [14].

Take `CC(C)n1c(NC2CCCCC2)nc2cnc(Nc3ccc(N4CCN(C)CC4)cc3)nc21` [Compounds 8-30]: the IC50 against EGFR L858R mutant type was 0.005 µM; on EGFR wild type it was 0.015 µM; in assay [1] it was 0.228 µM; in [2] it was over 10 µM; in assay [3], 5.47 µM; in assay [4], 4.22 µM. Further, the IC50 is over 10 µM in [5]; over 10 µM in assay [6]; over 10 µM in [7]; 4.46 µM in [8]; 5.76 µM in assay [9]; over 10 µM in [10]. Further, the IC50 was over 10 µM in assay [11], 0.483 µM in [12], 0.201 µM in [13] and 0.0551 µM in [14].

`C=CC(=O)Nc1cccc(Nc2ncc3nc(Nc4ccccc4)n(C(C)C)c3n2)c1` [Compounds 8-38]: the IC50 against EGFR L858R mutant type was 0.0006 µM; at EGFR wild type it was 0.002 µM; in [1], 0.037 µM; in assay [2] it was 0.281 µM; in [3] it was 1.79 µM; in assay [4] it was 0.37 µM. In addition, the IC50 in assay [5] was 2.9 µM; in assay [6], over 10 µM; in [7], 0.179 µM; in [8], 1.68 µM; in assay [9], 0.269 µM; in [10], over 10 µM. In addition, the 50% inhibitory concentration (IC50) in assay [11] was 0.644 µM; in [12], 0.0005 µM; in [13] it was 0.0073 µM; in assay [14], 0.0007 µM.
